Key:
morningglory = assay: Test C postemergence; type: in vivo, Ipomoea coccinea
Outline: (§1)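 Seeds sown in loam–sand blend and treated preemergence with test chemicals in non-phytotoxic solvent with surfactant; postemergence plants in peat-based medium, treated at 2–18 cm (1- to 4-leaf stage). Greenhouse 13 to 15 days, then visual rating versus controls, 0 (no effect) to 100 (complete control).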

barnyardgrass = assay: Test C postemergence; type: in vivo, Echinochloa crus-galli
Outline: as §1

blackgrass = assay: Test C postemergence; type: in vivo, Alopecurus myosuroides
Outline: as §1

oilseed rape = assay: Test C postemergence; type: in vivo, Brassica napus
Outline: as §1

foxtail, giant = assay: Test C postemergence; type: in vivo, Setaria faberii
Outline: as §1

ryegrass, Italian = assay: Test C postemergence; type: in vivo, Lolium multiflorum
Outline: as §1

galium = assay: Test C postemergence; type: in vivo, Galium aparine
Outline: as §1

kochia = assay: Test C postemergence; type: in vivo, Kochia scoparia
Outline: as §1

oat, wild = assay: Test C postemergence; type: in vivo, Avena fatua
Outline: as §1

lambsquarters [1] = assay: Test C preemergence; type: in vivo, Chenopodium album; conditions: for Lambsquarters plant response rating: preemergence
Outline: as §1

nutsedge, yellow = assay: Test C postemergence; type: in vivo, Cyperus esculentus
Outline: as §1

crabgrass, large = assay: Test C postemergence; type: in vivo, Digitaria sanguinalis
Outline: as §1

lambsquarters [2] = assay: Test C postemergence; type: in vivo, Chenopodium album
Outline: as §1

velvetleaf = assay: Test C postemergence; type: in vivo, Abutilon theophrasti
Outline: as §1

waterhemp = assay: Test C postemergence; type: in vivo, Amaranthus rudis
Outline: as §1

[3] = Postemergence, 31 g ai/ha, visually evaluated after 13 to 15 days
[4] = postemergence, 62 g ai/ha, scale 0 to 100
[5] = postemergence, 250 g ai/ha, scale 0 to 100 (0 no effect, 100 complete control)
[6] = postemergence, 125 g ai/ha, scale 0 to 100, 0 no effect, 100 complete control

Which results are given for `CCCc1cc(C(=O)NCC(F)(F)F)nn1Cc1ccnc(C(F)(F)F)c1` [Compound 105]?
Plant response rating (scale of 0 to 100 where 0 is no effect and 100 is complete control), Morningglory (morningglory; [3]): 80; Morningglory plant response rating (morningglory; [4]): 80; Plant response rating, Morningglory (morningglory; [5]): 95; Plant response rating, Morningglory (morningglory; [6]): 85; Plant response rating (scale of 0 to 100 where 0 is no effect and 100 is complete control), Barnyardgrass (barnyardgrass; [3]): 10; Barnyardgrass plant response rating (barnyardgrass; [4]): 20; Plant response rating, Barnyardgrass (barnyardgrass; [5]): 85; Plant response rating, Barnyardgrass (barnyardgrass; [6]): 45; Plant response rating (scale of 0 to 100 where 0 is no effect and 100 is complete control), Blackgrass (blackgrass; [3]): 10; Blackgrass plant response rating (blackgrass; [4]): 30; Plant response rating, Blackgrass (blackgrass; [5]): 60; Plant response rating, Blackgrass (blackgrass; [6]): 35; Plant response rating (scale of 0 to 100 where 0 is no effect and 100 is complete control), Oilseed Rape (oilseed rape; [3]): 45; Oilseed Rape plant response rating (oilseed rape; [4]): 50; Plant response rating, Oilseed Rape (oilseed rape; [5]): 90; Plant response rating, Oilseed Rape (oilseed rape; [6]): 85; Plant response rating (scale of 0 to 100 where 0 is no effect and 100 is complete control), Foxtail, Giant (foxtail, giant; [3]): 15; Foxtail, Giant plant response rating (foxtail, giant; [4]): 40; Plant response rating, Foxtail, Giant (foxtail, giant; [5]): 85; Plant response rating, Foxtail, Giant (foxtail, giant; [6]): 75; Plant response rating (scale of 0 to 100 where 0 is no effect and 100 is complete control), Ryegrass, Italian (ryegrass, Italian; [3]): 5; Ryegrass, Italian plant response rating (ryegrass, Italian; [4]): 10; Plant response rating, Ryegrass, Italian (ryegrass, Italian; [5]): 45; Plant response rating, Ryegrass, Italian (ryegrass, Italian; [6]): 30; Plant response rating (scale of 0 to 100 where 0 is no effect and 100 is complete control), Galium (galium; [3]): 55; Galium plant response rating (galium; [4]): 85; Plant response rating, Galium (galium; [5]): 90; Plant response rating, Galium (galium; [6]): 85; Plant response rating (scale of 0 to 100 where 0 is no effect and 100 is complete control), Kochia (kochia; [3]): 90; Kochia plant response rating (kochia; [4]): 90; Plant response rating, Kochia (kochia; [5]): 95; Plant response rating, Kochia (kochia; [6]): 90; Plant response rating (scale of 0 to 100 where 0 is no effect and 100 is complete control), Oat, Wild (oat, wild; [3]): 25; Oat, Wild plant response rating (oat, wild; [4]): 30; Plant response rating, Oat, Wild (oat, wild; [5]): 60; Plant response rating, Oat, Wild (oat, wild; [6]): 45; Plant response rating (scale of 0 to 100), Lambsquarters (lambsquarters [1]; Preemergence, 250 g ai/ha): 100; Lambsquarters plant response rating (lambsquarters [1]; 31 g ai/ha, visual rating, scale 0 to 100 (0 no effect, 100 complete control), 13 to 15 days): 85; Lambsquarters plant response rating (lambsquarters [1]; 62 g ai/ha, scale 0 to 100 (0 no effect, 100 complete control), 13 to 15 days): 100; Lambsquarters plant response rating (lambsquarters [1]; 125 g ai/ha, scale 0 to 100, 0 is no effect, 100 is complete control): 100; Plant response rating (scale of 0 to 100 where 0 is no effect and 100 is complete control), Nutsedge, Yellow (nutsedge, yellow; [3]): 5; Nutsedge, Yellow plant response rating (nutsedge, yellow; [4]): 5; Plant response rating, Nutsedge, Yellow (nutsedge, yellow; [5]): 40; Plant response rating, Nutsedge, Yellow (nutsedge, yellow; [6]): 20; Plant response rating (scale of 0 to 100 where 0 is no effect and 100 is complete control), Crabgrass, Large (crabgrass, large; [3]): 35; Crabgrass, Large plant response rating (crabgrass, large; [4]): 45; Plant response rating, Crabgrass, Large (crabgrass, large; [5]): 95; Plant response rating, Crabgrass, Large (crabgrass, large; [6]): 90; Plant response rating (scale of 0 to 100 where 0 is no effect and 100 is complete control), Lambsquarters (lambsquarters [2]; [3]): 75; Lambsquarters plant response rating (lambsquarters [2]; [4]): 95; Plant response rating, Lambsquarters (lambsquarters [2]; [5]): 98; Plant response rating, Lambsquarters (lambsquarters [2]; [6]): 95; Plant response rating (scale of 0 to 100 where 0 is no effect and 100 is complete control), Velvetleaf (velvetleaf; [3]): 40; Velvetleaf plant response rating (velvetleaf; [4]): 55; Plant response rating, Velvetleaf (velvetleaf; [5]): 75; Plant response rating, Velvetleaf (velvetleaf; [6]): 70; Plant response rating (scale of 0 to 100 where 0 is no effect and 100 is complete control), Waterhemp (waterhemp; [3]): 65; Waterhemp plant response rating (waterhemp; [4]): 75; Plant response rating, Waterhemp (waterhemp; [5]): 85; Plant response rating, Waterhemp (waterhemp; [6]): 75

Source: patent US20150105252A1, “SUBSTITUTED PYRAZOLES AS HERBICIDES” (E I DU PONT DE NEMOURS AND COMPANY, priority 2013, published 2015)
